In US12491185B2, “Inhibitors of mPTP” (NRG Therapeutics Ltd, priority 2023, dated 2025):

Experiments:
mPTP [1] = test: mPTP activity (Ca2+ retention) assay in isolated rat liver mitochondria; assay type: biochemical; conditions: for mPTP Rat liver pIC50: examples tested by different contract research organisations, believed comparable
How it was run: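 pIC50 was taken from Fluo5N fluorescence at 10 min after a 75 μM CaCl2 bolus, scaled between DMSO (0%) and 5 μM cyclosporin A (100%). Compounds, ten half-log concentrations from 30 μM to 1 nM final, sat 10 min at RT with fresh female Sprague Dawley rat liver mitochondria energized by succinate plus rotenone.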

mPTP [2] = test: mPTP activity assay in isolated rat brain mitochondria; assay type: biochemical; conditions: fluorescence at 10 min timepoint
How it was run: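 Fresh brain mitochondria from female Sprague Dawley rats, digitonin-washed, in pH 7.4 mannitol/MOPS/KCl buffer with pyruvate, malate, ADP, oligomycin A and 2 μM Fluo5N. Preincubated with compounds 10 min at RT. Fluo5N fluorescence then read every 3 sec for 10 min on FLIPR Tetra.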

mPTP [3] = test: Human platelet mitochondria assay (annexin V / PS exposure by flow cytometry); assay type: cell-based; conditions: human blood platelets stimulated with thrombin/convulxin/calcium; % AnV-APC positive platelets
Procedure: The mPTP cell based assay was performed using a transformative functional cell-(human blood platelets)-based assay by flow cytometry. Procoagulant platelets expose phosphatidylserine (PS), allowing a burst of thrombin generation that is responsible for producing an occlusive thrombus. While an increase in cytosolic Ca^2+ concentration is required for deriving platelets to become activated, a higher and more sustained increases in cytosolic Ca^2+ concentration is needed to commit some platelets to becoming procoagulant. Simulation of platelets results in the rapid influx of Ca^2+ across the platelet membrane. The Ca^2+ is then sequestered by mitochondria until the threshold for mPTP opening is reached, at which point the pore opens and the mitochondrial membrane potential is dissipated. mPTP opening and subsequent disruption in mitochondrial membrane potential leads to release of a high concentration of calcium stored in mitochondria into the platelet's cytosol (“supramaximal calcium signal” [1]) which is known to be a requisite initiating signal transduction leading to externalisation of procoagulant PS to the outer leaflet of platelets' plasma membrane. PS externalisation of stimulated platelets can be quantified in live platelets using standard annexin V (AnV) labelling by flow cytometry, enabling pharmacological characterisation of mPTP inhibitors.
Fresh human blood (9 ml) was collected from consenting donors into 3.2% sodium citrate. Acid citrate dextrose (85 mM tri-sodium citrate, 71 mM citric acid, and 111 mM D-glucose) was added (1:7 vol/vol) and platelet-rich plasma was separated by centrifugation (200 g, 10 minutes, ambient temperature, and without any brake). Platelets were pelleted by centrifugation (600 g, 10 minutes, ambient temperature) in the presence of prostaglandin E1 (100 nM) and apyrase (0.02 U/mL). Pelleted platelets were resuspended in N-2-hydroxyethylpiperazine-N′-2-ethanesulfonic acid (HEPES)-buffered saline supplemented with D-glucose (135 mM NaCl, 10 mM HEPES, 3 mM KCl, 1 mM MgCl2, 0.34 mM NaH2PO4, 5 mM D-glucose, 0.1% bovine serum albumin, pH 7.4.) and apyrase (0.02 U/mL). Platelets were rested for 30 minutes at 30° C. before treatment protocols were initiated.
Test compounds were prepared from 10 mM stocks in DMSO. Serial dilution of search test compounds stamped in duplicate into a 96 well plate using Multidrop Pico 8 Digital Dispenser. Platelets were loaded and incubated for 30 min at room temperature. Then a stimulation mix containing Thrombin (FAC: 0.5 U/ml)/Convulxin (FAC: 0.05 μg/ml)/Calcium (FAC: 2 mM) added per well except control/not stimulated wells (This is low signal control). Some wells received no treatment but DMSO vehicle control and used as high signal controls (FAC of DMSO set at 0.1% in all wells of the 96 well plate). The reaction mix incubated for 10 min at room temperature. During last 2 min of stimulation AnV-APC was added to detect surface PS exposure. Samples ten fixed and fluorescence was detected by MACSQuant X flow cytometry and 10 000 platelet events were collected. The percentage of AnV-APC positive platelets was calculated for each well. IC50 for each compound was then calculated using a standard four parameter curve fit model (GraphPad Prism).

Cn1nc(C(=O)NCC(C)(Cc2ccc(F)cc2F)C2CC2)[nH]c1=O (single isomer, unassigned) [Example 239, N-(2-cyclopropyl-3-(2,4-difluorophenyl)-2-methylpropyl)-1-methyl-5-oxo-4,5-dihydro-1H-1,2,4-triazole-3-carboxamide]
mPTP Rat liver pIC50 (mPTP [1]): 7.10 | mPTP Rat brain pIC50 (mPTP [2]): 8.07 | pIC50 (mPTP [3]): 7.39

Cn1nc(C(=O)NC[C@H](Cc2ccc(F)cc2)C2CC2)[nH]c1=O [Example 190]
mPTP pIC50 rat liver mitochondria (mPTP [1]; Fluo5N fluorescence at 10 min after 75 μM CaCl2): highest activity | mPTP Rat liver pIC50 (mPTP [1]): 7.31 | mPTP Rat brain pIC50 (mPTP [2]): 7.75 | pIC50 (mPTP [3]): 7.23

CC(CNC(=O)c1nccc(=O)[nH]1)(Cc1ccc(F)cc1)C1CC1 (single isomer, unassigned) [Example 252]
mPTP Rat liver pIC50 (mPTP [1]): 6.82 | mPTP Rat brain pIC50 (mPTP [2]): 7.91 | pIC50 (mPTP [3]): 7.42

O=C(NCC1(Cc2ccc(F)cc2F)CC(F)C1)c1nccc(=O)[nH]1 (single isomer, unassigned) [Example 247]
mPTP Rat liver pIC50 (mPTP [1]): 6.27 | mPTP Rat brain pIC50 (mPTP [2]): 7.26 | pIC50 (mPTP [3]): 6.52

Cn1nc(C(=O)NC[C@H](Cc2c(F)cc(F)cc2F)C2CC2)[nH]c1=O [Example 117, (R)—N-(2-cyclopropyl-3-(2,4,6-trifluorophenyl)propyl)-1-methyl-5-oxo-4,5-dihydro-1H-1,2,4-triazole-3-carboxamide]
mPTP Rat liver pIC50 (mPTP [1]): 6.47 | mPTP Rat brain pIC50 (mPTP [2]): 7.56 | pIC50 (mPTP [3]): 6.90

Cn1nc(C(=O)NCC2(Cc3ccc(F)cc3F)CCC2)[nH]c1=O [Example 22, N-((1-(2,4-difluorobenzyl)cyclobutyl)methyl)-1-methyl-5-oxo-4,5-dihydro-1H-1,2,4-triazole-3-carboxamide]
mPTP Rat liver pIC50 (mPTP [1]): 6.79 | mPTP Rat brain pIC50 (mPTP [2]): 7.75 | pIC50 (mPTP [3]): 7.14

O=C(NCC1(Cc2ccc(F)cc2F)CC12CC2)c1nccc(=O)[nH]1 (single isomer, unassigned) [Example 235]
mPTP Rat liver pIC50 (mPTP [1]): 6.79 | mPTP Rat brain pIC50 (mPTP [2]): 7.65 | pIC50 (mPTP [3]): 7.31

CC(c1ccccc1)C1(CNC(=O)c2nn(C)c(=O)[nH]2)CCC1 (single isomer, unassigned) [Example 27, 1-methyl-5-oxo-N-((1-(1-phenylethyl)cyclobutyl)methyl)-4,5-dihydro-1H-1,2,4-triazole-3-carboxamide]
mPTP Rat liver pIC50 (mPTP [1]): 5.49 | mPTP Rat brain pIC50 (mPTP [2]): 6.25 | pIC50 (mPTP [3]): 5.70
